The record followed here is patent US20180228858A1, “A PLANT EXTRACT AND COMPOUNDS FOR USE IN WOUND HEALING” (priority 2014, published 2018).

One series deals with T1, human CYP11B1 (Homo sapiens, UniProt P15538).
T1 construct: expressed in transfected cells; host or cells: V79MZh11B1 cell line (V79 hamster fibroblasts by own knowledge)
T1 sequence (P15538 25-503): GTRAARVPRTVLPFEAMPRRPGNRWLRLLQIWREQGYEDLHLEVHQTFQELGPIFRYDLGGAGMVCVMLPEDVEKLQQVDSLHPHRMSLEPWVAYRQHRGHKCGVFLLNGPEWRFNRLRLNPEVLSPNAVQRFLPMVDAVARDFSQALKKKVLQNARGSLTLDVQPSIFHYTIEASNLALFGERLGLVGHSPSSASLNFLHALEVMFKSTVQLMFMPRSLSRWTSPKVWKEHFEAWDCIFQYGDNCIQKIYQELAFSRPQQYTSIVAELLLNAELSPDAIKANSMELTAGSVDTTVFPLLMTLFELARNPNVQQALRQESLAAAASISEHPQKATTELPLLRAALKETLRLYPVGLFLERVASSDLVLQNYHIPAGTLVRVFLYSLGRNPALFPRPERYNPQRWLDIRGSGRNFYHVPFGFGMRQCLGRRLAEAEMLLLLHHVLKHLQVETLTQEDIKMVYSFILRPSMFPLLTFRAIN
Put plainly: CYP11B1 assay in V79MZh11B1 cells expressing recombinant human CYP11B1. It counts as cell-based. The following applies: mean ± SD of 2 independent experiments; for inhibition at 1 µM: V79MZh11B1, 1 μM; for inhibition at 10 µM: V79MZh11B1, 10 μM; for inhibition at 100 µM: V79MZh11B1, 100 μM; for % CYP11B1 Inhibition: 10 μM. The protocol:
Applicant dissolved ˜10 mg of the Salvia m. Bunge extract (as disclosed in WO2009050451) in the required volume of 100% ethanol or 100% DMSO to obtain a 1% (w/v) extract solution. They tested 5 μL of this solution in a 500 μL assay incubation volume (final ethanol or DMSO conc. of 1%). From this 1% Salvia m. Bunge extract solution, they also prepared a 1:10 and 1:100 dilution in 100% ethanol or 100% DMSO. From these solutions, they tested 5 μL in a 500 μL assay incubation volume.
The V79MZh11B1 cell line, expressing recombinant human CYP11B1, was cultured in Dulbecco's modified Eagle (DME, Sigma) medium supplemented with 5% fetal calf serum (FCS; Sigma), penicillin G (100 U/ml), streptomycin (100 μg/ml), glutamine (2 mM) and sodium pyruvate (1 mM) at 37° C. in 5% CO2 in air. Cells were placed on 24-well cell culture plates (8×10^5 cells per well) and cultured in 1 ml DME medium per well until confluence. On the day of testing, DME medium was removed and 450 μl of fresh DMEM, containing 5 μl of the extract solution in 100% ethanol or 100% DMSO, was added to each well. There was no significant difference in CYP11B1 inhibition between DMSO or ethanol as solvent. Control wells (receiving vehicle or ketoconazole (final concentration of 50 nM) as reference compound to validate each experiment) were treated in the same way without extract solution. After 60 min at 37° C. in the CO2 incubator, the reaction was started by the addition of 50 μl of DMEM containing 100 nM of 11-deoxycorticosterone (plus 0.15 μCi of [1,2-^3H] 11-deoxycorticosterone) as substrate. All measurements were in duplicate. After 25 min, the enzyme reaction was stopped by extracting the supernatant with ethyl acetate. Samples were centrifuged (10,000×g, 10 min), and the upper phase was pipetted into fresh cups. The ethylacetate solvent was evaporated and the residue was dissolved in 40 μl of methanol and analyzed by HPLC. The following formulas were used to determine the level of conversion and percentage of enzyme inhibition.
Given the activity of the extract the Applicant looked at the activity of some of the tanshinones using the methodology described in Example 1.

A further series has as its system V79MZh11B1 cells. Put plainly: MTT cellular viability assay. The series is classed as cell-based. The procedure: In order to check that the inhibition was not due to toxicity, a MTT [3-(4,5-dimethylthiazol-2-yl)-2,5-diphenyl-tetrazolium bromide] cellular viability assay was performed in the same cell line under the incubation conditions used in the CYP11B1 screening assay as set out in Example 2 below:
V79MZh11B1 cells were cultured on 24-well cell culture plates (8×10^5 cells per well) in 1 ml DME medium until confluence. On the day of testing, DME medium was removed and 450 μl of fresh DME medium with 5% FCS, containing 5 μl of the Salvia m. Bunge extract solution in 100% ethanol, was added to each well. Ethanol (1%) and Triton® X-100 (0.0006%) were used as vehicle and positive control (all final concentrations), respectively. All measurements were in quadruplicate. After 60 min at 37° C. in a 5% CO2, 50 μl of fresh DME medium (+5% FCS) was added to each well. After 25 min, medium was replaced by 500 μl fresh DME medium (+5% FCS) to which 25 μl of MTT solution (5 mg per ml PBS, pH 7.2) was added immediately. After 30 min, all medium was removed and the cells were lysed in 250 μl of 0.5% acetic acid (v/v), 10% SDS (w/v) in DMSO. Absorbance of formazan was measured spectrophotometrically at 570 nm wavelength
On the technique in general: Tetrazolium dyes change colour on reduction, which living cells bring about.

The term inhibition denotes the percentage by which the read-out fell short of the control.

For `C[C@H]1COC2=C1C(=O)C(=O)c1c2ccc2c1CCCC2(C)C` [Cryptotanshinone], at human CYP11B1, the inhibition at 1 µM is 6.4 ± 1.6%, the inhibition at 10 µM was 15.4 ± 10.3% and the inhibition at 100 µM is 59.9 ± 22%.
Regarding `Cc1cccc2c3c(ccc12)C1=C(C(=O)C3=O)[C@@H](C)CO1` [Dihydrotanshinone, 15,16-dihydrotanshinone I], at human CYP11B1, the “% CYP11B1 Inhibition” value came out at 93.6 ± 9.1%, the inhibition at 1 µM was 43.3 ± 14.7%, the inhibition at 10 µM was determined as 94% and the inhibition at 100 µM is 100%.
As for `Cc1coc2c1C(=O)C(=O)c1c-2ccc2c1CCCC2(C)C` [Tanshinone IIA], on human CYP11B1, the inhibition at 1 µM turned out to be 5.9 ± 0.2%, the inhibition at 10 µM stood at 16.1 ± 13.5% and the inhibition at 100 µM was found to be 29.4 ± 0.4%.
As to `Cc1coc2c1C(=O)C(=O)c1c-2ccc2c(C)cccc12` [Tanshinone I], at human CYP11B1, the “% CYP11B1 Inhibition” value is listed as 63.7 ± 4.5%, the inhibition at 1 µM amounted to 19.1 ± 7.9%, the inhibition at 10 µM is 64% and the inhibition at 100 µM was determined as 81.1 ± 6.9%.
In the case of Triton X-100, the “Cell viability (MTT conversion into formazan, 1% ethanol = 100%)” value in the series on V79MZh11B1 cells (Experiment 1, final conc. 0.0006%) is 3 ± 1%; in the series with V79MZh11B1 cells (Experiment 2, final conc. 0.0006%) it was 3 ± 1%. Also, in the series with V79MZh11B1 cells (positive control, 0.0006%), the “effect on formazan formation” value is “almost fully block formazan formation”.
